Measurements from PMC5289073, “Stable expression and functional characterisation of the diamondback moth ryanodine receptor G4946E variant conferring resistance to diamide insecticides” (Scientific Reports, 2015).
Read-outs that look alike come from different tables or passages of the source.

Experiments:
P. xylostella WT RyR [1] = target: T1, P. xylostella WT RyR (Plutella xylostella, UniProt K7W8M2); assay: Calcium fluorescence (Fluo8, FLIPR Tetra), Sf9 cells stably expressing wild-type RyR (Sf9-wtRyR); format: cell-based; settings: for Intracellular calcium signal over time (Fluo8): caffeine 30 mM, flubendiamide-sulfoxide 1 μM, chlorantraniliprole 1 μM
Protocol: Single Sf9 cell clones stably expressing either the wild-type (Sf9-wtRyR) or the G4946E (Sf9-mRyR) RyR channel were isolated after a few cycles of clonal selection. […] This may be explained by compensatory calcium re-uptake mechanisms of the sarco-/endoplasmic reticulum, in particular the Ca^2+-ATPase (SERCA)[32][33].
Fluorescence of the calcium-Fluo8 complex was measured as a function of time.
Measurements of the integrated calcium signals as a function of the diamide concentration, gave characteristic dose-response curves, from which apparent EC50 concentrations for flubendiamide-sulfoxide and chlorantraniliprole were calculated (Fig. 6). These values represent the effector concentration causing half-maximal integrated calcium signals in the cells. […] It should be noted that the EC50 values are not only determined by the compound’s affinities to the RyR, but also by their availability at the intracellular target site as influenced by their physico-chemical properties.
(§1) Figure 6 Calcium transients in Sf9 cells stably expressing either the P. xylostella WT (●) or the modified (G4946E) RyR (▲) as a function of the diamide concentration. Calcium-dye (Fluo8) fluorescence was measured after (a) flubendiamide-sulfoxide or (b) chlorantraniliprole application as a function of time. The integrated fluorescence signals were plotted against the logarithm of the effector concentration. Data fitting and EC50 calculations were performed with the SigmaPlot v13 software package.
(§2) Cells were transfected as described above and subjected to selection with 300 μg ml^−1 zeocin by the dilution method, essentially as described in the manufacturer´s manual (Invitrogen). After a few successive rounds of clonal selection, zeocin-resistant cell clones were tested for functional RyR expression by calcium fluorescence measurements.
(§3) Calcium-dye fluorescence was measured with Fluo8-loaded cells on the FLIPR Tetra instrument (Molecular Devices) in the 384 microtiter plate format. 1.5 × 10[4] cells per well were treated with variable concentrations of effector compounds in a total volume of 80 μl Tyrode´s buffer containing 0.1% DMSO (final concentration) essentially following the established protocols provided with the Fluo8 No-Wash calcium assay kit (Molecular Devices). Excitation and emission wavelengths were set at 490 nm and 525 nm, respectively.

[2] = test system: P. xylostella RyR (thoracic microsomal membranes); settings: Philippine strain versus susceptible strain; cited from earlier work
Tuta absoluta = test system: Tuta absoluta; design: method as in ref 39 = [39]; Roditakis E. et al. First report of Tuta absoluta resistance to diamide insecticides . J Pest Sci. 88 , 9 – 16 ( 2015 ).; settings: T. absoluta population from Sicily (Italy), up; cited from earlier work
Adoxophyes honmai = test system: Adoxophyes honmai; design: method as in ref 40 = [40]; Uchiyama T. & Ozawa A. Rapid development of resistance to diamide insecticides in the smaller tea tortrix, Adoxophyes honmai (Lepidoptera: Tortricidae), in the tea fields of Shizuoka Prefecture, Japan; settings: cited from earlier work
P. xylostella G4946E RyR [3] = target: T2, P. xylostella G4946E RyR (Plutella xylostella, UniProt K7W8M2, G4900E); assay: Calcium fluorescence (Fluo8, FLIPR Tetra), Sf9 cells stably expressing G4946E RyR (Sf9-mRyR); format: cell-based
Protocol: as §1
The efficacy of both diamides was reduced dramatically in the Sf9-mRyR cells expressing the G4946E RyR.
as §2, §3

Plutella xylostella = settings: cited from earlier work; for Resistance compared to susceptible strains: larvae collected from the Philippines and Thailand in 2012
P. xylostella G4946E RyR [4] = target: T2, P. xylostella G4946E RyR; format: cell-based; settings: 72 h post transfection, caffeine 30 mM, flubendiamide 10 μM
Protocol: (§4) Figure 3 Fluorescence ratios measured over time in a single calcium release experiment using Fura-2 AM in Sf9 cells transiently expressing (a) WT construct and (b) the G4946E variant 72 h post transfection.
(§5) Sf9 cells (Life technologies) were maintained in Sf-900 II SFM (Gibco-life technologies) serum free media without antibiotic in 30 ml suspension cultures (shaking at 115 rpm) at a constant temperature of 27 °C. Cells used for transfection were seeded into 60 mm cell culture dishes (Corning®), at 2 × 10[6] cells per dish in 3 ml of Sf-900 II SFM, and left to attach for 1 h. Cells were transfected using 3 μg of plasmid DNA, 15 μl Cellfectin II reagent (Life technologies) and 5 μl PLUS™ enhancer reagent (Life technologies) per dish, following the manufacturer’s protocol.
(§6) Fura 2-AM dye (Life technologies, CA, USA) was used for monitoring calcium release in Sf9 cells transfected with the P. xylostella RyR. Approximately 2.5 × 10^5 of un-transfected SF9 cells were allowed to attach to Poly-L-lysine coated coverslips (Sigma, MA, USA) for 1 h and then transfected using Cellfectin™ II. 24 h, 48 h, 72 h and 96 h post transfection the cells were loaded with […] of Fura 2-AM calcium sensitive dye. Cells were left to incubate at 27 °C for 45–60 minutes, followed by 3 washes with 500 μl of fresh un-supplemented Sf-900 II medium. […]

[5] = test system: P. xylostella ROTH WT RyR; assay: Fura-2 AM calcium release, Sf9 cells transiently expressing ROTH WT RyR; format: cell-based, Plutella xylostella; settings: 72 h post transfection, caffeine 30 mM, flubendiamide sulfoxide 30 μM, flubendiamide 10 μM
Protocol: as §4, §5, §6

[6] = target: rabbit skeletal muscle RyR; design: method as in PMID 11220363; settings: native preparation of rabbit skeletal muscle RyR; cited from earlier work
H. virescens RyR = settings: cited from earlier work
P. xylostella WT RyR [7] = target: T1, P. xylostella WT RyR; assay: [3H] ryanodine binding, membranes of Sf9 cells transiently expressing ROTH WT RyR
Protocol: (§7) Apparent differences in Kd and Bmax with those reported in other studies could likely be explained by the different experimental conditions.
(§8) Figure 4 Tritium labelled ryanodine binding from Sf9 membrane preparations expressing P. xylostella WT and G4946E RyRs.
(§9) For membrane preparation, transfected cells were harvested 48 h post transfection using phosphate buffered saline (PBS), the cells counted and then re-suspended in a hypo-osmotic buffer (20 mM Tris, 1 mM EDTA pH 7.4) at a concentration of 2 × 10[6] cells per ml. The cells were then homogenised and centrifuged at 1,500 g for 15 min at 4 °C to remove cell debris. The supernatant was removed, centrifuged at 100,000 g for 1 h at 4 °C and the membrane pellet re-suspended in a 0.4 M sucrose, 20 mM HEPES solution (20 μl per 2 × 10[6] cells). Protein concentration was determined using Bradford reagent (Bio-Rad) following the manufacturer’s instructions, against Bovine Serum Albumin (BSA) standards.
(§10) Binding reactions were set up in a 96 well flat bottom microtiter plate in a total volume of 250 μl per well. […]

P. xylostella G4946E RyR [8] = target: T2, P. xylostella G4946E RyR; assay: [3H] ryanodine binding, membranes of Sf9 cells transiently expressing G4946E RyR
Protocol: as §7, §8, §9, §10

SMILES: Cn1c(=O)c2c(ncn2C)n(C)c1=O [caffeine]
- Intracellular calcium signal over time (Fluo8) (P. xylostella WT RyR [1]; Sf9-wtRyR): increased rapidly to the maximum in less than one minute after application and then decreased to baseline levels

SMILES: CNC(=O)c1cc(Cl)cc(C)c1NC(=O)c1cc(Br)nn1-c1ncccc1Cl [chlorantraniliprole]
- Resistance ratio of EC50 for ryanodine binding stimulation [2]: 159 fold
- Resistance level (Tuta absoluta): up to 2,414 fold
- Resistance ratio (Adoxophyes honmai): 77.2 fold
- EC50 (P. xylostella WT RyR [1]): 17 nM
- Intracellular calcium signal over time (Fluo8) (P. xylostella WT RyR [1]; Sf9-wtRyR): increased intracellular calcium concentrations that persisted
- EC50 (P. xylostella G4946E RyR [3]): 3720 nM
- Loss of effect on the RyR channel with G4946E substitution versus WT (P. xylostella G4946E RyR [3]; G4946E versus WT, from EC50 values): roughly two orders of magnitude
- Resistance (Plutella xylostella; field populations from China with G4946E): 303–658 fold
- Resistance compared to susceptible strains (Plutella xylostella): over 200 fold

SMILES: Cc1cc(C(F)(C(F)(F)F)C(F)(F)F)ccc1NC(=O)c1cccc(I)c1C(=O)NC(C)(C)C[S+](C)[O-] (centres unmarked) [flubendiamide sulfoxide]
- Calcium release response (Fura-2 fluorescence ratio) (P. xylostella G4946E RyR [4]): failed to induce any release of calcium
- Calcium release response (Fura-2 fluorescence ratio) [5]: reversible activation of the calcium release
- EC50 (P. xylostella WT RyR [1]; Sf9-wtRyR, stable WT RyR, Fluo8, ± standard error printed, read-out: EC50 (half-maximal integrated calcium signal)): 245 nM
- Intracellular calcium signal over time (Fluo8) (P. xylostella WT RyR [1]; Sf9-wtRyR): increased intracellular calcium concentrations that persisted
- EC50 (P. xylostella G4946E RyR [3]; Sf9-mRyR, stable G4946E RyR, Fluo8, ± standard error printed, read-out: EC50 (half-maximal integrated calcium signal)): > 20000 nM

SMILES: Cc1cc(C(F)(C(F)(F)F)C(F)(F)F)ccc1NC(=O)c1cccc(I)c1C(=O)NC(C)(C)CS(C)(=O)=O [flubendiamide]
- Calcium release response (Fura-2 fluorescence ratio) (P. xylostella G4946E RyR [4]): did not show any calcium release
- Calcium release response (Fura-2 fluorescence ratio) [5]: permanently increased Ca^2+ levels
- Resistance ratio of EC50 for ryanodine binding stimulation [2]: > 450 fold
- Resistance level (Tuta absoluta): ≤ 1,742 fold
- Resistance ratio (Adoxophyes honmai): 105 fold
- Resistance compared to susceptible strains (Plutella xylostella): over 200 fold

SMILES: CC(C)[C@@]1(O)[C@@H](OC(=O)c2ccc[nH]2)[C@@]2(O)[C@@]3(C)C[C@]4(O)O[C@@]5([C@H](O)[C@@H](C)CC[C@]35O)[C@@]2(O)[C@@]14C [ryanodine]
- Kd [6]: 2.04 ± 0.12 nM
- Kd (H. virescens RyR; H. virescens native membrane preparations, different study): 13.9 ± 3.8 nM
- Kd (H. virescens RyR; native preparation of H. virescens RyR): 3.82 ± 0.39 nM
- Kd (P. xylostella WT RyR [7]): 12.9 ± 4.5 nM
- Kd (P. xylostella G4946E RyR [8]): 14.7 ± 4.18 nM
